Source: US8053436B1, “9-(piperazinylalkyl) carbazoles as bax-modulators” (Merck Serono SA, priority 1999, dated 2011)
Structures can show the parent of a compound that is named as a salt.

Assays:
[1] = target: T1, Bid-induced Bax activation (mitochondria isolated from HeLa cells) (Homo sapiens, UniProt Q07812); assay: Mitochondria cytochrome c release triggered by Bid-induced Bax activation; format: biochemical; conditions: Compounds were tested at 10 μM, 10 nM recombinant Bid
T1 construct: endogenous in cells; host or cells: mitochondria isolated from HeLa cells
T1 sequence (Q07812 whole entry): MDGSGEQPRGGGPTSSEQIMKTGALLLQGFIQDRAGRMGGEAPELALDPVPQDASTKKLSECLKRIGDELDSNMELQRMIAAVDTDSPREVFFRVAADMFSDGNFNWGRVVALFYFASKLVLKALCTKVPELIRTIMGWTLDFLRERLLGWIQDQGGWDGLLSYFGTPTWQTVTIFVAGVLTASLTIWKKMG
Protocol: d) Effect of Compounds according to formula I onto the Release of Cytochrome c Triggered by Bid-Induced Bax Activation (Mitochondria Cytochrome c Release Triggered by Bid-Induced Bax Activation)
Mitochondria isolated from HeLa cells are incubated for 15 min at 30° C. in […] of KCl buffer in the presence or absence of 10 nM recombinant Bid. The various compounds (10 μM) are pre-incubated for 5 min prior to addition of Bid. Following incubation, mitochondria were centrifuged for 5 min at 13000 g at 4° C. and the supernatant is collected for cytochrome c analysis. Cytochrome c is detected by Western blotting. The cytochrome c bands are scanned and quantified using a Bio-Rad (GS-700 Imaging Densitometer).
(§1) The above set out 2 in vitro assays c) and d) involving the determination of mitochondrial cytochrome c release are based on immunochemical methods using the Western blot analysis. Alternatively, said quantitative cytochrome c determinations could be performed by using spectrophotometric means: • I. by recording the difference between reduced and oxidised cytochrome c by dual wavelength double beam spectrophotometry; • by measuring the rather intensive γ or Soret peak in the spectrum of cytochrome c (ε=100 mM^−1 cm^−1) is used for rapid and quantitative determination of the release of cytochrome c from isolated mitochondria.

[2] = target: T2, recombinant Bax (Human Bax-α), mitochondria from mouse liver (Homo sapiens, UniProt Q07812); assay: In vitro assay for cytochrome c release (mitochondria cytochrome c release triggered by Bax activation); format: biochemical; conditions: Compounds were tested at 5 μM, 200 nM recombinant Bax
T2 construct: Human Bax-α lacking 20 amino acids at the COOH-terminus; GST (cleaved yes); His-tag (alternative construct); made in house; host or cells: Escherichia coli
T2 sequence (Q07812 1-172 limits assumed): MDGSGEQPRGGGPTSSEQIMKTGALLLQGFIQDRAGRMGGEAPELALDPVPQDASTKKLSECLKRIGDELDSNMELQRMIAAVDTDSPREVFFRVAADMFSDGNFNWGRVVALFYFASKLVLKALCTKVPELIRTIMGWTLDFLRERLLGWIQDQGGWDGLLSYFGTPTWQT
Description: The cytochrome c bands are scanned and quantified using a Bio-Rad (GS-700 Imaging Densitometer).
as §1

[3] = test system: Sympathetic neurons from superior cervical ganglia (SCG) of newborn rats; assay: Sympathetic neuron culture and survival assay (neuronal survival); format: cell-based; conditions: Compounds were tested at 10 μM; rat SCG neurons, NGF deprivation (anti NGF antibody), MTT 24 hours after cell death induction
Description: as §1
Cell death is induced at day 4 after plating by exposing the culture to medium containing 10 µg/ml of anti NGF antibody (Boehringer Mannheim Corp., Indianapolis, Ind.) and no NGF or arabinosine, in the presence or absence of piperazine derivatives of carbazole inhibitors according to formula I. 24 hours after cell death induction, determination of cell viability is performed by incubation of the culture for 1 hour, at 37° C. in 0.5 mg/ml of 3-(4,5-dimethyl-thiazol-2-yl)2,5diphenyl tetrazolium bromide (MTT). After incubation in MTT, cells are re-suspended in DMSO, transferred to a 96 MTT plate and cell viability is evaluated by measuring optical density at 590 nm.

Row | SMILES | melting point | Neuronal Survival (%) [3] [%] | also measured
1 | O=C(CN1CCN(CC2CCCCC2)CC1)Cn1c2ccc(Br)cc2c2cc(Br)ccc21 (as salt: hydrochloride) [Example 109, (±)-1-[4-(cyclohexylmethyl)piperazin-1-yl]-3-(3,6-dibromocarbazol-9-yl)acetone] | 261 °C (dec.) |  | 
2 | O=C(CN1CCN(CC2CCCCC2)CC1)Cn1c2ccccc2c2cc(-c3ccccc3)ccc21 (as salt: hydrochloride) [Example 111, (±)-1-[4-(Cyclohexylmethyl)piperazin-1-yl]-3-(3-phenylcarbazol-9-yl)acetone] | 231 °C (dec.) |  | 
3 | OC(CN1CCN(Cc2ccc(F)cc2)CC1)Cn1c2ccccc2c2ccccc21 (racemic) (as salt: HCl) [Example 22, (±)-1-Carbazol-9-yl-3-[4-(4-fluoro-benzyl)-piperazin-1-yl]-propan-2-ol] | 251 °C (dec.) |  | 
4 | OC(CN1CCN(Cc2ccc(F)cc2)CC1)Cn1c2ccccc2c2cc(-c3ccccc3)ccc21 (racemic) (as salt: HCl) [Example 24, (±)-1-[4-(4-Fluoro-benzyl)-piperazin-1-yl]-3-(3-phenyl-carbazol-9-yl)-propan-2-ol] | 188 °C |  | 
5 | N#Cc1ccc2c(c1)c1cc(C#N)ccc1n2CC(O)CN1CCNCC1 (racemic) (as salt: HCl) [Example 25, (±)-9-(2-Hydroxy-3-piperazin-1-yl-propyl)-carbazole-3,6-dicarbonitrile] | 295 °C (dec.) |  | 
6 | OC(CN1CCN(CCCc2ccccc2)CC1)Cn1c2ccccc2c2ccccc21 (racemic) (as salt: HCl) [Example 31, (±)-1-Carbazol-9-yl-3-[4-(3-phenyl-propyl)-piperazin-1-yl]-propan-2-ol] | 265 °C |  | 
7 | O=C(c1ccccc1)N1CCN(CC(O)Cn2c3ccccc3c3ccccc32)CC1 (racemic) (as salt: HCl) [Example 36, (±)-1-[4-(3-Carbazol-9-yl-2-hydroxy-propyl)-piperazin-1-yl]-1-phenyl-methanone] | 153 °C |  | 
8 | Cc1ccc2c3ccccc3n(CC(O)CN3CCN(Cc4ccccc4)CC3)c2c1 (racemic) (as salt: hydrochloride) [Example 1, (±)-1-(4-Benzyl-piperazin-1-yl)-3-(2-methyl-carbazol-9-yl)-propan-2-ol] | 239 °C (dec.) |  | 
9 | OC(CN1CCN(CC2CCCCC2)CC1)Cn1c2ccccc2c2cc(-c3ccccc3)ccc21 (racemic) (as salt: hydrochloride) [Example 66, (±)-1-(4-Cyclohexylmethylpiperazin-1-yl)-3-(3-phenylcarbazol-9-yl)-propan-2-ol] | 265 to 270 °C (dec.) |  | 
10 | O=S(=O)(Cc1ccccc1)N1CCN(CC(O)Cn2c3ccc(Br)cc3c3cc(Br)ccc32)CC1 (racemic) (as salt: hydrochloride) [Example 71, (±)-1-[4-(Benzylsulfonyl)piperazin-1-yl]-3-(3,6-dibromo-carbazol-9yl)propan-2-ol] | 253 °C (dec.) |  | 
11 | OC(CN1CCN(Cc2ccc(Cl)c(Cl)c2)CC1)Cn1c2ccc(Br)cc2c2cc(Br)ccc21 (racemic) (as salt: hydrochloride) [Example 72, (±)-1-(3,6-Dibromo-carbazol-9-yl)-3-[4-(3,4-dichlorobenzyl)piperazin-1-yl]propan-2-ol] | 287 °C (dec.) |  | 
12 | OC(CN1CCN(CC2CCCCC2)CC1)Cn1c2ccc(Cl)cc2c2cc(Cl)ccc21 (racemic) (as salt: hydrochloride) [Example 76, (±)-1-[4-(Cyclohexylmethyl)piperazin-1-yl]-3-(3,6-dichloro-carbazol-9-yl)propan-2-ol] | 302 °C (dec.) |  | 
13 | OC(CN1CCN(Cc2ccnc3ccccc23)CC1)Cn1c2ccccc2c2cc(Br)ccc21 (racemic) (as salt: hydrochloride) [Example 106, (±)-1-(3-Bromocarbazol-9-yl)-3-[4-(quinolin-4-ylmethyl)piperazin-1-yl]propan-2-ol] | 192 °C (dec.) |  | 
14 | OC(CN1CCN(Cc2ccccc2)CC1)Cn1c2ccc(Br)cc2c2cc(Br)ccc21 (racemic) [Example 6, (±)-1-(4-Benzyl-piperazin-1-yl)-3-(3,6-dibromo-carbazol-9-yl)-propan-2-ol] | 70 to 75 °C |  | 
15 | OC(CN1CCN(Cc2ccc(F)cc2)CC1)Cn1c2ccc(Br)cc2c2cc(Br)ccc21 (racemic) [Example 23, (±)-1-(3,6-Dibromo-carbazol-9-yl)-3-[4-(4-fluoro-benzyl)-piperazin-1-yl]-propan-2-ol] |  | 45 | inhibition at 10 µM [1]: 68%; inhibition at 5 µM [2]: 51%
16 | OC(CN1CCNCC1)Cn1c2ccccc2c2cc(-c3ccccc3)ccc21 (racemic) [Example 27, (±)-1-(3-Phenylcarbazol-9-yl)-3-piperazin-1-yl-propan-2-ol] |  | 40 | inhibition at 10 µM [1]: 88%; inhibition at 5 µM [2]: 40%
17 | OC(CN1CCN(CC2CCCCC2)CC1)Cn1c2ccc(Br)cc2c2cc(Br)ccc21 (racemic) [Example 45, (±)−1-4-Cyclohexylmethylpiperazin-1-yl)-3-(3,6-dibromo-carbazol-9-yl)-propan-2-ol] |  | 60 | Mitochondria Cytochrome c Release Triggered by Bid-Induced Bax Activation (% Inhibition) [1]: 37%
18 | OC(CN1CCN(Cc2ccsc2)CC1)Cn1c2ccc(Br)cc2c2cc(Br)ccc21 (racemic) [Example 60, (±)-1-(3,6-Dibromocarbazol-9-yl)-3-[4-(thien-3-ylmethyl)piperazin-1-yl]propan-2-ol] |  | 40 | inhibition at 10 µM [1]: 60%
19 | COc1ccc(CN2CCN(CC(O)Cn3c4ccc(Br)cc4c4cc(Br)ccc43)CC2)cc1 (racemic) [Example 62, (±)-1-(3,6-Dibromocarbazol-9-yl)-3-[4-(4-methoxybenzyl)piperazin-1-yl]propan-2-ol] |  | 30 | inhibition at 10 µM [1]: 99%
20 | OC(CN1CCN(CCN2CCOCC2)CC1)Cn1c2ccc(Br)cc2c2cc(Br)ccc21 (racemic) [Example 73, (±)-1-(3,6-Dibromo-carbazol-9-yl)-3-[4-(2-morpholin-4-ethyl)piperazin-1-yl]propan-2-ol] |  | 30 | Mitochondria Cytochrome c Release Triggered by Bid-Induced Bax Activation (% Inhibition) [1]: 74%
21 | FC(F)(CN1CCNCC1)Cn1c2ccc(Br)cc2c2cc(Br)ccc21 (racemic) [Example 80, (±)-3,6-Dibromo-9-(2,2-difluoro-3-piperazin-1-ylpropyl)-carbazole] |  | 20 | inhibition at 10 µM [1]: 73%
22 | OC(CN1CCN(CCN2CCOCC2)CC1)Cn1c2ccc(Cl)cc2c2cc(Cl)ccc21 (racemic) [Example 110, (±)-1-(3,6-Dichlorocarbazol-9-yl)-3-[4-(2-morpholin-4-ethyl)piperazin-1-yl]propan-2-ol] |  | 30 | Mitochondria Cytochrome c Release Triggered by Bid-Induced Bax Activation (% Inhibition) [1]: 87%
